Results from ChEMBL document CHEMBL1201862, “PubChem BioAssay data set” (2004).
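Test compounds were applied to cells in 96-well plates for 48 hours at 5 doses. GI50 marks 50% less growth.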 The source made the active and inactive calls. No stated cut-off is given here; in the data, active = GI50 up to about 1.1 µM and inactive = higher.

Experiments:
Test in all cases: growth of human tumour cells (NCI), 48 h
[1] = test system: A549
[2] = test system: BT-549
[3] = test system: CCRF-CEM
[4] = test system: DU-145
[5] = test system: HCT-116
[6] = test system: Hs-578T
[7] = test system: IGROV-1
[8] = test system: KM12
[9] = test system: MCF7
[10] = test system: MDA-MB-231
[11] = test system: Malme-3M
[12] = test system: NCI-H460
[13] = test system: NCI-H522
[14] = test system: OVCAR-3
[15] = test system: OVCAR-5
[16] = test system: RPMI-8226
[17] = test system: SK-MEL-2
[18] = test system: SNB-75
[19] = test system: TK-10
[20] = test system: HOP-62

Row | SMILES | GI50 [1] | GI50 [2] | GI50 [3] | GI50 [4] | GI50 [5] | GI50 [6] | GI50 [7] | GI50 [8] | GI50 [9] | GI50 [10] | GI50 [11] | GI50 [12] | GI50 [13] | GI50 [14] | GI50 [15] | GI50 [16] | GI50 [17] | GI50 [18] | GI50 [19] | GI50 [20]
1 | CSc1c(C#N)c(S)n(-c2ccc(Cl)cc2)c(=O)c1C#N | > 100 µM (inactive) | > 100 µM (inactive) | 32.5 µM (inactive) | > 100 µM (inactive) | 45.4 µM (inactive) | > 100 µM (inactive) | 80.7 µM (inactive) | 40.2 µM (inactive) | > 100 µM (inactive) | > 100 µM (inactive) | > 100 µM (inactive) | > 100 µM (inactive) | 50.9 µM (inactive) | > 100 µM (inactive) | > 100 µM (inactive) | 38.7 µM (inactive) | > 100 µM (inactive) | > 100 µM (inactive) | > 100 µM (inactive) | –
2 | Cc1ccc2c(c1)C(C1Cc3c(C)cccc3C1=O)OC2=O (centres undefined) | > 100 µM (inactive) | 86.5 µM (inactive) | > 100 µM (inactive) | > 100 µM (inactive) | > 100 µM (inactive) | > 100 µM (inactive) | > 100 µM (inactive) | > 100 µM (inactive) | > 100 µM (inactive) | > 100 µM (inactive) | > 100 µM (inactive) | > 100 µM (inactive) | > 100 µM (inactive) | > 100 µM (inactive) | > 100 µM (inactive) | 63.2 µM (inactive) | > 100 µM (inactive) | 87.7 µM (inactive) | > 100 µM (inactive) | > 100 µM (inactive)
3 | C=CC/C(C(=O)OC)=C(/C(=O)OC)N(CCC)CCC | > 100 µM (inactive) | > 100 µM (inactive) | 36.1 µM (inactive) | > 100 µM (inactive) | 57.9 µM (inactive) | > 100 µM (inactive) | > 100 µM (inactive) | > 100 µM (inactive) | 63.2 µM (inactive) | > 100 µM (inactive) | > 100 µM (inactive) | > 100 µM (inactive) | 83.8 µM (inactive) | 36.1 µM (inactive) | > 100 µM (inactive) | 41.9 µM (inactive) | > 100 µM (inactive) | > 100 µM (inactive) | > 100 µM (inactive) | > 100 µM (inactive)
4 | Nc1nccc(Nc2ccc(S(N)(=O)=O)cc2)n1 | > 100 µM (inactive) | > 100 µM (inactive) | > 100 µM (inactive) | > 100 µM (inactive) | > 100 µM (inactive) | > 100 µM (inactive) | > 100 µM (inactive) | > 100 µM (inactive) | > 100 µM (inactive) | > 100 µM (inactive) | > 100 µM (inactive) | > 100 µM (inactive) | > 100 µM (inactive) | > 100 µM (inactive) | > 100 µM (inactive) | > 100 µM (inactive) | > 100 µM (inactive) | > 100 µM (inactive) | > 100 µM (inactive) | > 100 µM (inactive)
5 | CCCn1c2ccccc2c2ccc3c(c21)C(=O)C=CC3=O | > 10 µM (inactive) | 2.21 µM (inactive) | 0.204 µM (active) | 9.79 µM (inactive) | 1.63 µM (inactive) | 7.03 µM (inactive) | 3.31 µM (inactive) | > 10 µM (inactive) | 2.19 µM (inactive) | 2.06 µM (inactive) | 1.83 µM (inactive) | > 10 µM (inactive) | 1.98 µM (inactive) | 2.01 µM (inactive) | > 10 µM (inactive) | 2.12 µM (inactive) | > 4.78 µM (inactive) | > 10 µM (inactive) | 2.09 µM (inactive) | > 10 µM (inactive)
6 | Cc1ccc(S(=O)(=O)OC2C3OC(C)(C)OC3OC2C(c2cc(O)c3c(c2O)C(=O)c2ccccc2C3=O)c2cc(O)c3c(c2O)C(=O)c2ccccc2C3=O)cc1 (centres undefined) | > 10 µM (inactive) | > 10 µM (inactive) | > 10 µM (inactive) | > 10 µM (inactive) | > 10 µM (inactive) | > 10 µM (inactive) | > 10 µM (inactive) | > 10 µM (inactive) | > 10 µM (inactive) | > 10 µM (inactive) | > 10 µM (inactive) | > 10 µM (inactive) | > 10 µM (inactive) | > 10 µM (inactive) | > 10 µM (inactive) | > 10 µM (inactive) | > 10 µM (inactive) | > 10 µM (inactive) | > 10 µM (inactive) | > 10 µM (inactive)
7 | Nc1nc(N)c(N=Nc2ccc([As](=O)(O)O)c(O)c2)c(N)n1 | > 82.4 µM (inactive) | 32.4 µM (inactive) | 1.9 µM (inactive) | 7.5 µM (inactive) | 7.24 µM (inactive) | 13 µM (inactive) | 4.61 µM (inactive) | 28.8 µM (inactive) | 3.75 µM (inactive) | > 54.2 µM (inactive) | 79.1 µM (inactive) | 6.12 µM (inactive) | 3.5 µM (inactive) | 3.61 µM (inactive) | > 100 µM (inactive) | 3.21 µM (inactive) | > 21.1 µM (inactive) | 11.5 µM (inactive) | 16.8 µM (inactive) | 8.59 µM (inactive)
